{"source": "paper PMC9330353", "about": "(Journal of Fungi, 2022)", "key": {"Pdr5p [1]": {"target": "T1, Pdr5p (Saccharomyces cerevisiae, UniProt P33302)", "T1 construct": "AD/124567 cells in the exponential growth phase were harvested by centrifugation; endogenous in cells; host or cells: S. cerevisiae strain AD/124567 (PDR1-3; other MDR ABC transporter genes deleted)", "T1 sequence (P33302 whole entry)": "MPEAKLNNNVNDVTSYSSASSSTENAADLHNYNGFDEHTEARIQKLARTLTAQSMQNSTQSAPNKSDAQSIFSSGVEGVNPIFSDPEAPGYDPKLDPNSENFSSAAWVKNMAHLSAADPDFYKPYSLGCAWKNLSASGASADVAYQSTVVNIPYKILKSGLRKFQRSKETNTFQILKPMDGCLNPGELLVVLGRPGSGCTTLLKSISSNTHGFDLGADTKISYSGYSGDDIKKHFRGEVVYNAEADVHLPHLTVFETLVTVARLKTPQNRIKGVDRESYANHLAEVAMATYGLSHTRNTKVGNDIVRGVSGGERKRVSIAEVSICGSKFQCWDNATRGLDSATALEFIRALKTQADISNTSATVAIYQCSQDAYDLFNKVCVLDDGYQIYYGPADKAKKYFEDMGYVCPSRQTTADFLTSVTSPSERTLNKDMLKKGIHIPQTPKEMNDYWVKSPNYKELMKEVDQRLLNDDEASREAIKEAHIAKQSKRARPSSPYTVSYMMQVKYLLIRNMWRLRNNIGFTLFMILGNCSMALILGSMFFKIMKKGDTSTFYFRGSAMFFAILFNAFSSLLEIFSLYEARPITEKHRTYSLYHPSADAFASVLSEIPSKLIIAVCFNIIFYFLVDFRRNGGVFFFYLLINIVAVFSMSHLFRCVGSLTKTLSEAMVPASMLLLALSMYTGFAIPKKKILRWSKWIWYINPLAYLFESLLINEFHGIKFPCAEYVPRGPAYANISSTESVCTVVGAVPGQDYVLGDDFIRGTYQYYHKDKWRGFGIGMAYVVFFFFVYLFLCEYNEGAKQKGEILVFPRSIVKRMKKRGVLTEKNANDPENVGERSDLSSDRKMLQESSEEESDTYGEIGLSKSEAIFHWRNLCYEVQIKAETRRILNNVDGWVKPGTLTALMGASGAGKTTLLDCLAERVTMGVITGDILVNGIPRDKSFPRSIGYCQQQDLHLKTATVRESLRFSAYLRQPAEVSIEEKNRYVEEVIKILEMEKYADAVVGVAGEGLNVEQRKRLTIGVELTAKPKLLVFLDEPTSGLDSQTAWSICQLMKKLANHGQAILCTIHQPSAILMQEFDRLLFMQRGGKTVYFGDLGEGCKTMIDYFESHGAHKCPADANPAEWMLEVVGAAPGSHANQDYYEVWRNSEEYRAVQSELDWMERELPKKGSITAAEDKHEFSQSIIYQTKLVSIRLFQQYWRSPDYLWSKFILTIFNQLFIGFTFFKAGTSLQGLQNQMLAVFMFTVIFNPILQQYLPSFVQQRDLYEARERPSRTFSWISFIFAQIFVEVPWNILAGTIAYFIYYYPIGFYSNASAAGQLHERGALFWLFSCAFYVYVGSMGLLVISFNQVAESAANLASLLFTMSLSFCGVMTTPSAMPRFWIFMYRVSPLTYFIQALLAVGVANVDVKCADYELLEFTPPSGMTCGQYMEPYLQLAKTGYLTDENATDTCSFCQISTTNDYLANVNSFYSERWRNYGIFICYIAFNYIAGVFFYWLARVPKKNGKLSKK", "conditions": "at 100 μg/mL; cited from earlier work"}, "strain AD/124567 [2]": {"system": "strain AD/124567", "assay": "Disk diffusion chemosensitization assay", "type": "cell-based, Saccharomyces cerevisiae", "conditions": "strain AD/124567, medium with 150 µg/mL fluconazole, 50 μg compound per disk, 48 h", "experimental": "To evaluate the ability of the compounds in reversing the MDR phenotype of strain AD/124567, a chemosensitization assay was performed, with slight modifications. Briefly, YPD medium containing 150 µg/mL fluconazole was prepared with 1.5% agarose, and a cell suspension from AD/124567 was incorporated into molten medium (45 °C), reaching a final concentration of 2.4 × 10^6 yeasts/mL. Subsequently, 50 μg of each compound was applied to 6-milimeter Whatman 3MM® blotting paper disks (Sigma-Aldrich®, St. Louis, MO, USA), dried at 30 °C for 30 min, and placed on the solidified medium surface. The plates were incubated at 30 °C for 48 h, photographed, and the inhibition zones were measured. A fluconazole-free medium was also used to evaluate the effects of the compounds alone on yeast growth."}, "strain AD/124567 [3]": {"system": "strain AD/124567", "assay": "Checkerboard assay with fluconazole, strain AD/124567", "type": "cell-based, Saccharomyces cerevisiae", "experimental": "(§1) Culture growth was measured using a microplate reader at 600 nm (Fluostar Optima, BMG Labtech, Offenburg, Germany). Growth inhibition was calculated as described in Section 2.3.\n(§2) FICI ≤ 0.5 points to a synergic interaction, whereas 0.5 < FICI < 4.0 and FICI > 4 indicate indifferent and antagonistic interactions, respectively."}, "[4]": {"system": "fluconazole-resistant Candida albicans strain 95-142", "assay": "Checkerboard assay with fluconazole, strain 95-142", "type": "cell-based", "conditions": "read-out: Fluconazole MIC a (alone)", "from_the_text": "(§3) In this study, two S. cerevisiae mutant strains were used. Strain AD/124567 (genotype: MATα, PDR1-3, ura3, his1, Δyor1::hisG, Δsnq2::hisG, Δpdr10::hisG, Δpdr11::hisG, Δycf1::hisG, Δpdr3::hisG) overexpressed Pdr5p, but the genes of all other ABC transporters related to the MDR phenotype (Yor1p, Snq2p, Pdr10p, Pdr11p, and Ycf1p) were deleted. A second strain, AD/1234567, had all MDR related genes deleted, including PDR5 (genotype: MATα, PDR1-3, ura3, his1, Δyor1::hisG, Δsnq2::hisG, Δpdr5::hisG, Δpdr10::hisG, Δpdr11::hisG, Δycf1::hisG, Δpdr3::hisG). Therefore, this strain was highly sensitive to fluconazole. One fluconazole-resistant Candida albicans strain was also used in this study, namely, 95-142. This strain was isolated from the throat of a patient and identified by CHROMagar^TM and PCR. The isolate overexpressed CaCdr1p and CaCdr2p (the most important MDR transporters of C. albicans), and was kindly provided by Dr. Theodore White (University of Missouri, Kansas City, MO, USA).\nas §1, §2"}, "Pdr5p [5]": {"target": "T1, Pdr5p", "conditions": "at 200 μM; cited from earlier work"}, "[6]": {"system": "S. cerevisiae strain AD/124567 (overexpresses Pdr5p)", "assay": "Antifungal susceptibility test (microbroth dilution), strain AD/124567", "type": "cell-based, Saccharomyces cerevisiae", "conditions": "tested strains AD/1234567 and AD/124567, up to 100 μM", "from_the_text": "as §3\nThe antifungal activity of the compounds was evaluated via a microbroth dilution method described by Niimi et al.. […] Culture growth was measured using a microplate reader at 600 nm (Fluostar Optima, BMG Labtech, Offenburg, Germany). […] Growth inhibition was calculated as follows: % Growth inhibition = (Absorbance of growth control − Absorbance of treated sample) × 100/Absorbance of growth control"}, "Pdr5p [7]": {"target": "T1, Pdr5p", "assay": "Rhodamine 6G accumulation/efflux assay", "type": "cell-based", "conditions": "strain AD/124567 in the presence of glucose", "experimental": "Efflux assays were performed as described by Reis de Sá et al. (2017). Briefly, AD/124567 cells in the exponential growth phase were harvested by centrifugation at 5000 rpm at room temperature for 5 min, and then washed twice with phosphate-buffered saline (PBS) (0.43 g of KH2PO4; 7.2 g of NaCl; 1.85 g of Na2HPO4; pH 7.2; 990 mL of distilled water). Cells were then resuspended in 10 mL of PBS and starved for 2 h at 4 °C. Subsequently, 10^7 cells/mL were incubated for 30 min at 30 °C with 15 μM R6G. After incubation, cells were washed twice with PBS and further incubated in the presence of the compounds, DMSO, and FK-506 (a classical inhibitor of ABC transporters) for 60 min at 30 °C. […] The supernatants were transferred to the wells of a 96-well polystyrene plate, and fluorescence was measured with a plate reader (Fluostar Optima, BMG Labtech, Offenburg, Germany) at 485 nm (excitation) and 538 nm (emission). To evaluate R6G efflux, fluorescence emitted by the dye in the extracellular milieu was measured. Thus, the fluorescence was directly related to extracellular R6G concentration, and then to Pdr5p activity. […] R6G efflux was calculated as follows: (2) % efflux = Fluorescence of treated sample × 100/Fluorescence of AD/124567 with glucose […]"}}, "note": "Entries after “also recorded” stand apart in the source; their conditions may differ."}
{"smiles": "CC1(C)CCC2=C(O1)c1ccccc1C(=O)C2=O", "note": "[Beta-lapachone]", "values": [{"measurement": "Inhibition of Pdr5p activity", "setting": "Pdr5p [1]", "result": 79.4, "unit": "%"}]}
{"smiles": "C=CC[C@@H]1/C=C(\\C)C[C@H](C)C[C@H](OC)[C@H]2O[C@@](O)(C(=O)C(=O)N3CCCC[C@H]3C(=O)O[C@H](/C(C)=C/[C@@H]3CC[C@@H](O)[C@H](OC)C3)[C@H](C)[C@@H](O)CC1=O)[C@H](C)C[C@@H]2OC", "note": "[FK-506]", "values": [{"measurement": "Inhibition zone", "setting": "strain AD/124567 [2]", "result": 18, "unit": "mm"}]}
{"smiles": "OC(Cn1cncn1)(Cn1cncn1)c1ccc(F)cc1F", "note": "[Fluconazole]", "values": [{"measurement": "MIC", "setting": "strain AD/124567 [3]; Saccharomyces cerevisiae, strain AD/124567, 80% growth inhibition, read-out: Fluconazole MIC a (alone)", "result": 480, "unit": "mg/L"}, {"measurement": "MIC", "setting": "[4]", "result": 62.5, "unit": "mg/L"}]}
{"smiles": "Nc1ncc(/C=C/CNC(=O)c2cc(Br)c(Br)[nH]2)[nH]1", "note": "[Oroidin]", "values": [{"measurement": "Inhibition of R6G efflux", "setting": "Pdr5p [5]", "result": 60, "unit": "%"}]}
{"smiles": "C[C@H]1O[C@@H](O[C@H]2[C@@H](O)C[C@H](O[C@H]3[C@@H](O)C[C@H](O[C@H]4CC[C@@]5(C)[C@H](CC[C@@H]6[C@@H]5C[C@@H](O)[C@]5(C)[C@@H](C7=CC(=O)OC7)CC[C@]65O)C4)O[C@@H]3C)O[C@@H]2C)C[C@H](O)[C@@H]1O", "note": "[digoxin, Digoxin]", "values": [{"measurement": "Antifungal activity of the compound alone", "setting": "[6]", "result": "neither presented antifungal activity"}, {"measurement": "Effect on R6G efflux / Pdr5p activity (qualitative)", "setting": "Pdr5p [7]", "result": "unable to inhibit Pdr5p activity; also recorded: did not affect Pdr5p activity"}, {"measurement": "Interaction with fluconazole (qualitative)", "setting": "strain AD/124567 [3]; S. cerevisiae, agar diffusion assay and checkerboard titration", "result": "indifferent to interaction with fluconazole"}]}
